Assay results reported in PMC7291828 (Journal of medicinal chemistry, 2019).
Where a SMILES comes first, the peptide text is derived from it. Bridges are numbered along the chain shown (N, C = ends). Roman numbers before positions name the chains, in order. [ ]: non-standard residue; d: D form. 2Nal = N[C@@H](Cc1ccc2ccccc2c1)C(=O)O; Dap = NC[C@H](N)C(=O)O; AEEA = NCCOCCOCC(=O)O

Tests used:
SW480 cells = conditions: up to 50 μM
HeLa cells = test: Live-cell confocal microscopy of FAM-labeled peptides; type: cell-based; conditions: 5 μM FAM-labeled peptide, 2 h, 1% FBS
SJSA-1 cells = test: MTT viability assay, SJSA-1 cells; type: cell-based, human
[1] = system: MCF7, HCT116 and HeLa cells; conditions: ≥20 μM, apparently off-target (membrane disruption)
[2] = cited from earlier work

## CC[C@H](C)[C@@H]1NC(=O)[C@@H](NC(=O)[C@H](CCC(=O)O)NC(=O)[C@@H]2CCCN2C(=O)[C@H](Cc2ccc(O)cc2)NC(=O)CNC(=O)CNC(C)=O)CC(=O)NCCCC[C@@H](C(=O)N[C@@H](Cc2cnc[nH]2)C(=O)N[C@@H](CC(C)C)C(=O)N[C@@H](CCC(N)=O)C(=O)N[C@@H](CCCNC(=N)N)C(=O)N[C@H](C(=O)N[C@H](C(=O)N[C@@H](CC(C)C)C(=O)NCCOCCOCC(=O)NCCOCCOCC(=O)N[C@@H](CNC(=O)CC[C@@H]2NC(=O)[C@@H](CCCNC(=N)N)NC(=O)[C@H](CCCNC(=N)N)NC(=O)[C@@H](CCCNC(=N)N)NC(=O)[C@H](CCCNC(=N)N)NC(=O)[C@H](Cc3ccc4ccccc4c3)NC(=O)[C@@H](Cc3ccccc3)NC2=O)C(N)=O)[C@@H](C)CC)C(C)C)NC(=O)[C@H](CC(=O)O)NC(=O)[C@H](CC(C)C)NC1=O [Peptide 9] (I: Ac-GGYPEDILDKHLQRVIL[AEEA][AEEA][Dap]-NH2 / II: cyclo([2Nal]R[dR]R[dR]E[dF]); lactam I:6-I:10; amide I:20-II:6)
SW480 cells
  LDH release from SW480 cells: did not cause significant LDH release

## Ac-ETFCHYWCQLTS-miniPEG-K(FAM) (bicyclic or more) [Peptide 23]
HeLa cells
  intracellular fluorescence: brightly fluorescent

## Ac-LTFDHYWKQLTS-miniPEG-K(Tat) (sidechain bridge or staple) [Peptide 6]
SJSA-1 cells
  effect on viability of SJSA-1 cells: did not cause significant reduction

## Ac-LTFCHYWCQLTS-miniPEG-K(FAM) (bicyclic or more) [Peptide 21]
HeLa cells
  intracellular fluorescence: brightly fluorescent

## CC(=O)N[C@@H](CC(C)C)C(=O)N[C@H](C(=O)N[C@@H](Cc1ccccc1)C(=O)N[C@H]1CC(=O)NCCCC[C@@H](C(=O)N[C@@H](CCC(N)=O)C(=O)N[C@@H](CC(C)C)C(=O)N[C@H](C(=O)N[C@@H](CO)C(=O)NCCOCCOCC(=O)N[C@@H](CCCCNC(=O)CC[C@@H]2NC(=O)[C@@H](CCCNC(=N)N)NC(=O)[C@H](CCCNC(=N)N)NC(=O)[C@@H](CCCNC(=N)N)NC(=O)[C@H](CCCNC(=N)N)NC(=O)[C@H](Cc3ccc4ccccc4c3)NC(=O)[C@@H](Cc3ccccc3)NC2=O)C(N)=O)[C@@H](C)O)NC(=O)[C@H](Cc2c[nH]c3ccccc23)NC(=O)[C@H](Cc2ccc(O)cc2)NC(=O)[C@H](Cc2cnc[nH]2)NC1=O)[C@@H](C)O [Peptide 4] (I: Ac-LTFDHYWKQLTS[AEEA]K-NH2 / II: cyclo([2Nal]R[dR]R[dR]E[dF]); lactam I:4-I:8; amide I:14-II:6)
[1]
  effect on cell viability at higher concentrations: almost complete loss of cell viability

## nonaarginine [Peptide R9]
[2]
  fold lower cytosolic delivery efficiency than cyclic CPP9: 15 fold

## Ac-LTFDHYWKQLTS-miniPEG-K(R9) (sidechain bridge or staple) [Peptide 7]
SJSA-1 cells
  effect on viability of SJSA-1 cells: did not cause significant reduction

## Ac-EETFCHYWCQLTS-miniPEG-K(FAM) (bicyclic or more) [Peptide 25]
HeLa cells
  intracellular fluorescence: brightly fluorescent
